Results: patent publication US20240300977A1, “INHIBITORS OF DNA-DEPENDENT PROTEIN KINASE AND COMPOSITIONS AND USES THEREOF” (Intellia Therapeutics, Inc., priority 2021, published 2024)
Where “and” joins values, the source holds several entries; their conditions need not be identical. Equal entries are not always repeated.

Tests used:
[1] = test system: 697 ALL cells (697-luc2); experiment: WT1 TCR T cell mediated cytotoxicity, luciferase assay; assay type: cell-based, human; conditions: WT1-T cells (HD1) engineered with inhibitor, 48h, duplicate values
Protocol: (§1) The ability of WT1-TCR T cells engineered from donors 007HD and 008HD to kill hematological cancer cells expressing natural levels of WT1 and release cytokines was evaluated. TCR KO cells generated as described above but without TRAC/AAV addition were used as a negative, non-killing control. Briefly, T cells were co-cultured with luciferase expressing 697 ALL cells (697-luc2), or K562-luc2 cells transduced to express HLA-A*02:01 (K5692-HLA-A*02:01-luc2) at various effector to target (E:T) ratios (2:1, 1:1, 0.5:1) in TCEM without the addition of IL-2, IL-7, or IL-15. […] After 24h of co-culture, supernatants from the 2:1 E:T ratio group were harvested and used in an MSD U/R-PLEX assay to quantify IL-2, TNFα, IFNγ, and Granzyme B following manufacturers protocol (Mesoscale Discovery). After 48h of co-culture luciferase activity was quantified using the Bright-GLO Luciferase Assay System (Promega) in relative luminescence units (RLU). Percent specific lysis was determined using the formula:
(§2) % Specific Lysis=100−((RLU[Experimental Well]/RLU[Target Only Well])*100)

[2] = test system: K562-luc2 cells transduced to express HLA-A*02:01; experiment: as above; assay type: cell-based, human; conditions: WT1-T cells (HD1) engineered with inhibitor, K562-HLA-A*02:01, 48h, duplicate values
Protocol: as §1, §2

[3] = test system: 697 ALL cells (697-luc2); experiment: Cytokine release by WT1 TCR T cells, MSD U/R-PLEX; assay type: cell-based, human; set-up: unit not given here; conditions: 2:1 E:T, 24h supernatant, T cells engineered with inhibitor, duplicate values
Protocol: as §1, with “formula: […]” for “formula:”

[4] = test system: K562-luc2 cells transduced to express HLA-A*02:01; experiment: Cytokine release by WT1 TCR T cells, MSD U/R-PLEX; assay type: cell-based, human; set-up: unit not given here; conditions: K562-HLA-A2.1, 2:1 E:T, 24h supernatant, T cells engineered with inhibitor, duplicate values
Protocol: as §1, with “formula: […]” for “formula:”

[5] = test system: T cells; experiment: Off-target structural variation by UnIT; assay type: cell-based, human; conditions: T cells from Example 12, day 8 post-editing; TRAC sgRNA G013006
Text: (§3) On day 8 post-editing, T cells from Example 12 from the untreated, unedited, Compound 3 and Compound 4 guides samples were collected, spun down and the pellets were directly used as input material for gDNA isolation using “Zymo Quick DNA/RNA Mag Beads Kit” (Zymo Cat. R2131). The UnIT structural variant characterization assay was applied to these gDNA samples. High molecular weight genomic DNA is simultaneously fragmented and sequence-tagged (‘tagmented’) with the Tn5 transposase and an adapter with a partial Illumina P5 sequence and a 12 bp unique molecular identifier (UMI). Two sequential PCRs using a primer to P5 and hemi-nested gene specific primers (GSP) imparting the Illumina the P7 sequence to create two Illumina compatible NGS libraries per sample (Illumina, Ref 15033624). Sequencing across both directions of the CRISPR/Cas9 targeted cut site with the two libraries allows the inference and quantification of structural variants in DNA repair outcomes after genome editing. If the two fragments were aligned to different chromosomes, the SV was classified as an “inter-chromosomal translocation.” The magnitude of structural variation was shown in FIG. 9A and Table 18.

[6] = test system: T cells; experiment: Insertion percent in T cells of Example 17; assay type: cell-based, human; conditions: T cells from Example 12; FIG. 9B
Text: as §3

[7] = test system: TRAC; conditions: human
[8] = test system: TRBC; experiment: Off-target site validation, rhAmpSeq; conditions: gRNA G016239 targeting TRBC; of 92 off-target sites; with the named DNA-PKI or none
[9] = test system: T cells; experiment: TRAC LNP editing and GFP insertion in activated T cells with DNA-PK inhibitors, flow cytometry; conditions: day 5 post-edit; for Mean % CD3^−/GFP+ Cells (n = 3): GFP positive of the CD3 negative T cells; for Mean % CD3^− Cells (n = 3): TRAC LNP + GFP AAV

## Cc1cc2ncnn2cc1Nc1ncc2c(n1)n(C1CCC(F)(F)CC1)c(=O)n2C [Compound 3, 9-(4,4-difluorocyclohexyl)-7-methyl-2-((7-methyl-[1,2,4]triazolo[1,5-a]pyridin-6-yl)amino)-7,9-dihydro-8H-purin-8-one]
[1]; E:T 0.5, donor 007HD
  Percent specific lysis: 4.60% and 2.72%
[1]; E:T 0.5, donor 008HD
  Percent specific lysis: 63.10% and 72.62%
[1]; E:T 1, donor 007HD
  Percent specific lysis: 39.43% and 30.39%
[1]; E:T 1, donor 008HD
  Percent specific lysis: 95.29% and 94.31%
[1]; E:T 2, donor 007HD
  Percent specific lysis: 77.64% and 65.49%
[1]; E:T 2, donor 008HD
  Percent specific lysis: 98.98% and 98.97%
[2]; E:T 0.5, donor 007HD
  Percent specific lysis: 47.03% and 41.52%
[2]; E:T 0.5, donor 008HD
  Percent specific lysis: 72.45% and 71.77%
[2]; E:T 1, donor 007HD
  Percent specific lysis: 78.53% and 75.83%
[2]; E:T 1, donor 008HD
  Percent specific lysis: 98.67% and 99.08%
[2]; E:T 2, donor 007HD
  Percent specific lysis: 98.79% and 96.99%
[2]; E:T 2, donor 008HD
  Percent specific lysis: 99.96% and 99.84%
[3]; donor 007HD
  Granzyme B: 1441.06 and 1664.25
  IFN-gamma: 923.97 and 977.71
  IL-2: 2.23 and 4.32
  TNF-alpha: 5.29 and 3.46
[3]; donor 008HD
  Granzyme B: 1777.28 and 1609.68
  IFN-gamma: 7169.43 and 6733.05
  IL-2: 8.1 and 7.14
  TNF-alpha: 18.57 and 16.3
[4]; donor 007HD
  Granzyme B: 17178.54 and 20713.6
  IFN-gamma: 41527.06 and 59686.42
  TNF-alpha: 66.56 and 73.76
[4]; donor 008HD
  Granzyme B: 17134.42 and 18197.02
  IFN-gamma: 200584.6 and 216197.4
  IL-2: 484.52 and 524.89
  TNF-alpha: 302.06 and 324.18
[5]
  Unintended Structural Variance (Average): 1.30%
[6]
  Insertion Percent (Average): 68.35%
[7]
  Sites Validated: 0
[8]
  Sites Validated: 0
[9]; compound 0.0625 uM
  Mean % CD3^−/GFP+ Cells (n = 3): 75.50%
  Mean % CD3^− Cells (n = 3): 50.73%
[9]; compound 1 uM
  Mean % CD3^−/GFP+ Cells (n = 3): 79.60%
  Mean % CD3^− Cells (n = 3): 58.90%
